Tests used:
Experiment in all cases: Test B pre-/postemergence plant response
Type in all cases: in vivo
[1] = system: large crabgrass (Digitaria sanguinalis)
In short: (§1)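 Seeds were sown and sprayed preemergence, while plants at 2 to 18 cm (1- to 4-leaf stage) got postemergence sprays. Compounds were formulated in a non-phytotoxic solvent mixture with surfactant. After 13 to 15 days in a greenhouse, injury was rated visually against untreated controls, 0 (no effect) to 100 (complete control).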

[2] = system: woolly cupgrass (Eriochloa villosa)
In short: as §1

[3] = system: yellow nutsedge (Cyperus esculentus)
In short: as §1

[4] = system: velvetleaf (Abutilon theophrasti)
In short: as §1

[5] = system: corn (Zea mays)
In short: as §1

[6] = system: catchweed bedstraw (Galium aparine); conditions: Preemergence; 8 g ai/ha; scale 0 to 100
In short: as §1

[7] = system: cocklebur (Xanthium strumarium); conditions: for Cocklebur plant response rating: 8 g ai/ha
In short: as §1

[8] = system: green foxtail (Setaria viridis)
In short: as §1

[9] = system: lambsquarters (Chenopodium album)
In short: as §1

[10] = system: blackgrass (Alopecurus myosuroides); conditions: for Blackgrass plant response rating: 8 g ai/ha
In short: as §1

[11] = system: wild oat (Avena fatua)
In short: as §1

[12] = system: common ragweed (Ambrosia elation)
In short: as §1

[13] = system: kochia (Kochia scoparia)
In short: as §1

[14] = system: pigweed (Amaranthus retroflexus)
In short: as §1

[15] = 8 g ai/ha, postemergence, 0-100 scale
[16] = Postemergence, 16 g ai/ha, scale 0 to 100
[17] = Postemergence, 31 g ai/ha, scale 0 to 100
[18] = Postemergence, 62 g ai/ha, scale 0 to 100, 0 no effect, 100 complete control
[19] = Preemergence, 31 g ai/ha, 0 to 100 scale, 0 no effect, 100 complete control
[20] = Preemergence, 62 g ai/ha, scale 0 to 100
[21] = Preemergence, 8 g ai/ha, scale 0 to 100
[22] = Preemergence, 16 g ai/ha, scale 0 to 100
[23] = Preemergence, 31 g ai/ha, scale 0 to 100 (0 no effect, 100 complete control)
[24] = Preemergence, 16 g ai/ha, scale 0 to 100 (0 no effect, 100 complete control)

CCOC(=O)Oc1cnn(C)c(=O)c1-n1nc(-c2ccc(Cl)cc2)cc1C [Compound 53]
80: Oat, Wild plant response rating [11, 15] | Plant response rating, Oat, Wild [11, 23]
95: Foxtail, Green plant response rating [8, 15] | Plant response rating, Foxtail, Green [8, 16] | Foxtail, Green plant response rating [8, 21] | Plant response rating, Blackgrass [10, 17] | Plant response rating, Blackgrass [10, 18] | Blackgrass plant response rating ([10]; Preemergence, scale 0 to 100) | Plant response rating, Oat, Wild [11, 17]
98: Plant response rating, Oat, Wild [11, 18]
60: Plant response rating, Corn [5, 20] | Plant response rating, Blackgrass [10, 16]
45: Corn plant response rating [5, 22]
85: Plant response rating, Crabgrass, Large [1, 16] | Cupgrass, Woolly plant response rating [2, 15] | Plant response rating, Oat, Wild [11, 20]
65: Crabgrass, Large plant response rating [1, 15] | Oat, Wild plant response rating [11, 22]
100: Plant response rating, Crabgrass, Large [1, 18] | Plant response rating, Cupgrass, Woolly [2, 16] | Plant response rating, Cupgrass, Woolly [2, 17] | Plant response rating, Cupgrass, Woolly [2, 18] | Plant response rating, Corn [5, 16] | Plant response rating, Corn [5, 17] | Plant response rating, Corn [5, 18] | Plant response rating, Foxtail, Green [8, 17] | Plant response rating, Foxtail, Green [8, 18] | Plant response rating, Foxtail, Green [8, 19] | Plant response rating, Foxtail, Green [8, 20] | Foxtail, Green plant response rating [8, 22] | Plant response rating, Blackgrass [10, 24] | Plant response rating, Blackgrass [10, 19] | Plant response rating, Blackgrass [10, 20]
20: Corn plant response rating [5, 15]
90: Plant response rating, Crabgrass, Large [1, 17] | Plant response rating, Oat, Wild [11, 16]
30: Blackgrass plant response rating ([10]; postemergence, 0-100 scale)
0: Plant response rating, Crabgrass, Large [1, 19] | Plant response rating, Crabgrass, Large [1, 20] | Crabgrass, Large plant response rating [1, 21] | Crabgrass, Large plant response rating [1, 22] | Plant response rating, Cupgrass, Woolly [2, 19] | Plant response rating, Cupgrass, Woolly [2, 20] | Cupgrass, Woolly plant response rating [2, 21] | Cupgrass, Woolly plant response rating [2, 22] | Nutsedge, Yellow plant response rating [3, 15] | Plant response rating, Nutsedge, Yellow [3, 16] | Plant response rating, Nutsedge, Yellow [3, 17] | Plant response rating, Nutsedge, Yellow [3, 18] | Plant response rating, Nutsedge, Yellow [3, 23] | Plant response rating, Nutsedge, Yellow [3, 20] | Nutsedge, Yellow plant response rating [3, 21] | Nutsedge, Yellow plant response rating [3, 22] | Velvetleaf plant response rating [4, 15] | Plant response rating, Velvetleaf [4, 16] | Plant response rating, Velvetleaf [4, 17] | Plant response rating, Velvetleaf [4, 18] | Plant response rating, Velvetleaf [4, 23] | Plant response rating, Velvetleaf ([4]; Preemergence, 62 g ai/ha, 0 to 100 scale, 0 no effect, 100 complete control) | Velvetleaf plant response rating [4, 21] | Velvetleaf plant response rating [4, 22] | Corn plant response rating [5, 21] | Galium plant response rating [6] | Cocklebur plant response rating ([7]; postemergence, 0-100 scale) | Plant response rating, Cocklebur [7, 16] | Plant response rating, Cocklebur [7, 17] | Plant response rating, Cocklebur [7, 18] | Plant response rating, Cocklebur [7, 24] | Plant response rating, Cocklebur [7, 19] | Plant response rating, Cocklebur [7, 20] | Cocklebur plant response rating ([7]; Preemergence, scale 0 to 100) | Lambsquarters plant response rating [9, 15] | Plant response rating, Lambsquarters [9, 16] | Plant response rating, Lambsquarters [9, 17] | Plant response rating, Lambsquarters [9, 18] | Plant response rating, Lambsquarters [9, 19] | Lambsquarters plant response rating [9, 21] | Lambsquarters plant response rating [9, 22] | Ragweed plant response rating [12, 15] | Plant response rating, Ragweed [12, 16] | Plant response rating, Ragweed [12, 17] | Plant response rating, Ragweed [12, 18] | Plant response rating, Ragweed [12, 23] | Plant response rating, Ragweed [12, 20] | Ragweed plant response rating [12, 21] | Ragweed plant response rating [12, 22] | Kochia plant response rating [13, 15] | Plant response rating, Kochia [13, 16] | Plant response rating, Kochia [13, 17] | Plant response rating, Kochia [13, 18] | Plant response rating, Kochia [13, 19] | Pigweed plant response rating [14, 15] | Plant response rating, Pigweed [14, 16] | Plant response rating, Pigweed [14, 17] | Plant response rating, Pigweed [14, 18] | Plant response rating, Pigweed [14, 23] | Plant response rating, Pigweed [14, 20] | Pigweed plant response rating [14, 21] | Pigweed plant response rating [14, 22]
55: Plant response rating, Corn [5, 19]
40: Oat, Wild plant response rating [11, 21]
35: Plant response rating, Lambsquarters [9, 20]
